Experimental data published in BindingDB's records for doi:10.1016/j.bmc.2008.11.012 (Nippon Shinyaku, 2009).

Key:
[1] = target: Nociceptin receptor (Homo sapiens, UniProt P41146); assay: Receptor Binding Assay; details: pH 7.8; 25 °C
Description: (§1) Competitive binding displacement analysis was performed with membranes prepared from CHO-K1 cells stably expressing receptors. After incubation, samples were collected on GF/B glass-fiber, washed, and counted for radioactivity. IC50 values were obtained by fitting the competition binding curves according to a 4-parameter logistic model. Inhibition constants Ki were derived from the Cheng-Prusoff equation.

[2] = target: Mu-type opioid receptor (Rattus norvegicus, UniProt P33535); assay: Receptor Binding Assay
Sequence of Mu-type opioid receptor (P33535 whole entry): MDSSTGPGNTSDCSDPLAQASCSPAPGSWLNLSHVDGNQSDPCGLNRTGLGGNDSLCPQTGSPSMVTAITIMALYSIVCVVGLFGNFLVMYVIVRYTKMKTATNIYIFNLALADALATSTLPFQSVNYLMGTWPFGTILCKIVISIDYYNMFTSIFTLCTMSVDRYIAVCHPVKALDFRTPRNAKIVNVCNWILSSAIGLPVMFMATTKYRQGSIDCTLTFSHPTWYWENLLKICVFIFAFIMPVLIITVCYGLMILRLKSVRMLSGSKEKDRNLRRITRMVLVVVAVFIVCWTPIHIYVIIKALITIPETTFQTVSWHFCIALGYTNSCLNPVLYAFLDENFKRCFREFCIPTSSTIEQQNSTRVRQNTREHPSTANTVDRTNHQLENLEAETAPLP
Description: as §1

Sequence of Nociceptin receptor (P41146 whole entry): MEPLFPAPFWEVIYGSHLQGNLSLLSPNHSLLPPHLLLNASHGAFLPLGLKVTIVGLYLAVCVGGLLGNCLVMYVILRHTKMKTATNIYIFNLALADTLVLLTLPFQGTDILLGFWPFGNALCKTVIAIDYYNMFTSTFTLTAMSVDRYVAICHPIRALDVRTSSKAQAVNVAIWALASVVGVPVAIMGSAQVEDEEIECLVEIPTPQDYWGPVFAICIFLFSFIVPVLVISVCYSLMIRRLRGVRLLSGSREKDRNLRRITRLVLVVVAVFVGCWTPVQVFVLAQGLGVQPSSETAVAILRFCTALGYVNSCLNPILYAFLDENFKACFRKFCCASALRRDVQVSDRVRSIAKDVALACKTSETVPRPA

Compound | Ki [1] | Ki [2]
Cc1ccc2nc(C=Cc3ccc(Cl)cc3)nc(N[C@H]3CCCC[C@H]3NC(=N)N)c2c1 (racemic) [(1R,2S)-2-({2-[(E)-2-(4-chlorophenyl)ethenyl]-6-methylquinazolin-4-yl}amino)cyclohexane-1-guanidine] | 0.043 µM | 0.22 µM
Cc1ccc2nc(C=Cc3ccc(Cl)cc3)nc(N[C@H]3CC[C@@H](N=C(N)N)CC3)c2c1 [4-({2-[(E)-2-(4-chlorophenyl)ethenyl]-6-methylquinazolin-4-yl}amino)cyclohexane-1-guanidine] | 0.152 µM | 0.06 µM
